Measured values: US20230065562A1, “DUAL CONTROLS FOR THERAPEUTIC CELL ACTIVATION OR ELIMINATION” (Bellicum Pharmaceuticals, Inc., priority 2015, published 2023)

Columns and labels:
[1] = test system: iCasp9M.IRES.GFPhigh-transduced CTLs in LCL xenograft; experiment: SCID mouse-human xenograft model, elimination of iCasp9M-transduced CTLs; format: in vivo, NOD/SCID mice; conditions: single dose of CID (50 μg AP20187 i.p.), 3 days after
Description: Non-obese diabetic severe combined immunodeficient (NOD/SCID) mice, 6 to 8 weeks of age, were irradiated (250 rad) and injected subcutaneously in the right flank with 10×10^6 to 15×10^6 LCLs resuspended in Matrigel (BD Bioscience). Two weeks later mice bearing tumors that were approximately 0.5 cm in diameter were injected into the tail vein with a 1:1 mixture of nontransduced and iCasp9.I.GFPhigh-transduced EBV CTLs (total 15×10^6). At 4 to 6 hours prior and 3 days after CTL infusion, mice were injected intraperitoneally with recombinant hIL-2 (2000 U; Proleukin; Chiron). […] By FACS analysis, the number of GFP^+ cells within the gated CD3^+ population was evaluated. […]
The function of iCasp9M also was evaluated in transduced EBV-CTLs in vivo. […] Three days after CID/carrier administration, tumors were analyzed for human CD3^+/GFP^+ cells. […]
The function of iCasp9M in vivo, was assayed. […] On day 3 after CTL administration, mice received either CID (50 µg AP20187; (black diamonds, n=6) or carrier only (black squares, n=5) and on day 6 the presence of human CD3^+/GFP^+ T cells in the tumors was analyzed. Human CD3^+ T cells isolated from the tumors of a control group of mice that received only nontransduced CTLs (15×10^6 CTLs; n=4) were used as a negative control for the analysis of CD3^+/GFP^+ T cells within the tumors.

[2] = target: iRmC9 (pBP1327 & pBP1328) (Homo sapiens, UniProt P42345+P62942, F37V); experiment: SRα-SEAP assay of drug specificity, iRmC9 switch, 293 cells; conditions: SRα-SEAP reporter
[3] = test system: SLL-peptide pulsed T2 cells; experiment: IL-2 secretion of iMC-PRAME TCR T cells with SLL-peptide pulsed T2 cells; format: cell-based; conditions: FIG. 117D
[4] = test system: Raji-GFP cells; experiment: Raji-GFP coculture with CD19 CAR-T cells (flow cytometry); format: cell-based, human; conditions: 2 nM, E:T 1:5, seven days
Description: After seven days of incubation the live cells were analyzed for the proportion of GFP labeled tumor cells (left) and for the proportion of total T cells (CD3^+, right) and transduced CAR-T cells (CD34, not shown).
Raji cells (ATCC) labeled by stable expression of Green Fluorescent Protein (Raji-GFP) are a Burkitt's lymphoma cell line that express CD19 on the cell surface and are a target for an anti-CD19 CAR. 50000 Raji-GFP cells were seeded on a 24 well plate with 10000 CAR-T cells, a 1:5 E:T ratio. Media supernatant was taken at 48 hours for determination of cytokine release by activated CAR-T cells. The degree of tumor killing was determined at 7 days and 14 days by flow cytometry (Galeos, Beckman-Coulter) by the proportion of GFP labeled tumor cells and CD3 labeled T cells.

[5] = test system: T cells expressing ΔC9 alone (pBP1501); experiment: T cell killing assay with caspase 3/7 green reagent monitored by IncuCyte, negative control ΔC9; format: cell-based, human; conditions: increasing doses, FIG. 108B
Description: To determine the functionality of these switches in activated T cells, retroviral supernatants were produced and transduced into PBMCs activated from 3 separate donors.

[6] = target: iRC9 (pBP1310 & 1311) (Homo sapiens, UniProt P42345+P62942); experiment: SRα-SEAP assay of drug specificity, iRC9 switch, 293 cells; conditions: SRα-SEAP reporter, FIG. 108A
[7] = test system: NF-κB; experiment: NF-κB SeAP reporter assay of inducible MyD88/CD40 activity; format: cell-based
Description: 293T cells were transfected with 1 μg of reporter construct NF-κB SeAP and 4 μg of the iMC+CARζ construct pBP0774 or the MC-rap-CAR construct pBP1440 using the GeneJuice protocol (Novagen). […] After 24 hours of further incubation SeAP activity was determined from cell supernatants.
HEK 293T cells (1.5×10^5) were seeded on a 100-mm tissue culture dish in 10 mL DMEM4500, supplemented with glutamine, penicillin/streptomycin and 10% fetal calf serum. After 16-30 hours incubation, cells were transfected using Novagen's GeneJuice® protocol. Briefly, for each transfection, 0.5 mL OptiMEM was pipetted into a 1.5-mL microcentrifuge tube and 15 μL GeneJuice reagent added followed by 5 sec. vortexing. Samples were rested 5 minutes to settle the GeneJuice suspension. DNA (5 μg total) was added to each tube and mixed by pipetting up and down four times. Samples were allowed to rest for 5 minutes for GeneJuice-DNA complex formation and the suspension added dropwise to one dish of 293T cells. A typical transfection contains 1 μg NFkB-SEAP (5), 4 μg iMC+CARζ(pBP0774) or 4 μg MC-Rap-CAR (pBP1440) (1).
24 hours following transfection (4.1), 293T cells were split to 96-well plates and incubated with dilutions of dimerizing drugs. Briefly, 100 μL media was added to each well of a 96-well flat-bottom plate. Drugs were diluted in tubes to a concentration 4× the top concentration in the gradient to be place on the plate. […] 100 μL from each drug-containing well was then transferred to the adjacent well and the cycle repeated 10 times to produce a serial two-fold step gradient. The last wells were untreated and serve as a control for basal reporter activity. Transfected 293 cells were then trypsinized, washed with complete media, suspended in media and 100 μL aliquoted to each well containing drug (or no drug). Cells were incubated 24 hours.
24 hours after drug stimulation, 96-well plates were wrapped to prevent evaporation and incubated at 65° C. for 2 hours to inactivate endogenous and serum phosphatases while the heat-stable SeAP reporter remains (3, 12, 14). 100 μL samples from each well were loaded into individual wells of a 96-well assay plate with black sides. Samples were incubated with 0.5 mM 4-methylumbelliferyl phosphate (4-MUP) in 0.5 M diethanolamine at pH 10.0 for 4 to 16 hours. Phosphatase activity was measured by fluorescence with excitation at 355 nm and emission at 460 nm. Data was transferred to a Microsoft Excel spreadsheet for tabulation and graphed with GraphPad Prism.

[8] = test system: SK-N-SH neuroblastoma cells; experiment: Trans-well assay, HLA class I on tumor cells; format: cell-based; conditions: antigen-independent, FIG. 118B
Description: FIG. 118: (A) Trans-well assay set-up. (B) Cytokines secreted by transduced T cells in the top well upregulate HLA class I on the surface of SK-N-SH neuroblastoma cells in an antigen-independent, but iMC- and rimiducid-dependent manner.

[9] = test system: HPAC PSCA+ tumor cells; experiment: T cell anti-tumor assay with HPAC-RFP cells (IncuCyte, ELISA); format: cell-based, human; conditions: 10 nM on day 7 of co-culture
Description: PBMCs from donor 920 were activated and co-transduced with GFP-Ffluc and iMC+CARζ-T (189), i9+CARζ+MC (873), or FwtFRBC9/MC.FvFv (1308)-encoding vectors. […] (A & B) Two days post-seeding, culture supernatants were analyzed for IL-2, IL-6, and IFN-γ production by ELISA. […] Numbers of HPAC-RFP and T cell-GFP at the E:T 1:2 ratio was analyzed using the basic analyzer software for the IncuCyte at day 7 (Ci) and day 8 with 0 nM suicide drug (Cii) and 10 nM suicide drug (Ciii). Similar analysis was also performed at the 1:5 E:T ratio (D). (Note: the y-axis in Ci and Di are at log-scale).
The HPAC PSCA^+ tumor cells were stably labeled with nuclear-localized RFP protein using the NucLight™ Red Lentivirus Reagent (Essen Bioscience, 4625). To set up the coculture, 4000 HPAC-RFP cells were seeded per well of 96-well plates in 100 μl of CTL medium without IL-2 for at least 4 hours to allow tumor cells to adhere. After transduction with the appropriate retrovirus and allowed to rest for at least 7 days in culture, T were seeded according to various E:T ratios to the HPAC-RFP-containing 96-well plates. […] Each plate was set up in duplicates, one plate to monitor with the IncuCyte cell imaging system and one plate for supernatant collection for ELISA assay on day 2. The plates were centrifuged for 5 min at 400×g and placed inside the IncuCyte (Essen Bioscience, Dual Color Model 4459) to monitor red fluorescence (and green fluorescence if T cells were labeled with GFP-Ffluc) every 2-3 hours for a total of 7 days at 10× objective. Image analysis was performed using the “HPAC-RFP_TcellsGFP_10×_MLD” processing definition. On day 7, HPAC-RFP cells were analyzed using the “Red Object Count (1/well)” metric. […] On day 8, Tcell-GFP cells were analyzed using the “Total Green Object Integrated Intensity” metric. Each condition was performed at least in duplicates and each well was imaged at 4 different locations.

Sequence of iRC9 (pBP1310 & 1311) (P42345 2025-2113): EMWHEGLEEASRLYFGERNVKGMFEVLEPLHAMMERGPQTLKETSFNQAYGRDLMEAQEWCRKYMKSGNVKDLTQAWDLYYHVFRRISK
Sequence of iRC9 (pBP1310 & 1311) (P62942 2-107): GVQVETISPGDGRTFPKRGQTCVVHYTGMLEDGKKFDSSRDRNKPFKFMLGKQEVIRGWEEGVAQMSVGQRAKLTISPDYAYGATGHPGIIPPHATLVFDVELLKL
Sequence of iRC9 (pBP1310 & 1311) (P55211 135-416 partner limits assumed): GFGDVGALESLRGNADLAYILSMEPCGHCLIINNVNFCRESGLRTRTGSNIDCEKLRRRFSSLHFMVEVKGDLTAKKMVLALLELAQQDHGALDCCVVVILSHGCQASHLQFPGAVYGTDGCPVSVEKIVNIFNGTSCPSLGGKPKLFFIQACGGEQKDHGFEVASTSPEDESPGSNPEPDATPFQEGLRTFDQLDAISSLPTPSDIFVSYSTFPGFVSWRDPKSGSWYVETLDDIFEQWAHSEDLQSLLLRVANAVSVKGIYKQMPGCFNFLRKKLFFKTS
Sequence of iRmC9 (pBP1327 & pBP1328) (P42345 2025-2113): as the sequence (P42345 2025-2113) above
Sequence of iRmC9 (pBP1327 & pBP1328) (P62942 2-107 F37V): as the sequence (P62942 2-107) above, with F36V counted along it
Sequence of iRmC9 (pBP1327 & pBP1328) (P55211 135-416 partner limits assumed): as the sequence (P55211 135-416 partner limits assumed) above

| SMILES | reduction in the number of human CD3+/GFP+ T cells versus carrier ([1]; listed as CID) | reduction in the number of human CD3+/GFP+ T cells versus carrier ([1]; listed as dimerizer) | activation of the iRmC9 switch [2] | IL-2 secretion, PRAME TCR with iMC [3] | CAR-T cells with i9+CARζ+MC or FRBFwtMC/FvC9 [4] | activity of negative control ΔC9 alone (pBP1501) in T cells [5] | ligand required to activate the iRC9 switch [6] | EC50 ([7]; MC-rap-CAR construct pBP1440, read-out: EC50 / concentration stimulating NF-κB reporter activity via MC-Rap) | concentration inducing NF-κB reporter via iMC ([7]; iMC+CARζ construct BP774) | upregulation of HLA class I on the surface of SK-N-SH cells by cytokines of transduced T cells [8] | reduction of i9+CARζ+MC T cells [9] |
| --- | --- | --- | --- | --- | --- | --- | --- | --- | --- | --- | --- |
| CC[C@H](C(=O)N1CCCC[C@H]1C(=O)O[C@H](CCc1ccc(OC)c(OC)c1)c1cccc(OCC(=O)NCC(CNC(=O)COc2cccc([C@@H](CCc3ccc(OC)c(OC)c3)OC(=O)[C@@H]3CCCCN3C(=O)[C@@H](CC)c3cc(OC)c(OC)c(OC)c3)c2)CN(C)C)c1)c1cc(OC)c(OC)c(OC)c1 [AP20187] | > 99% | more than 99% |  |  |  |  |  |  |  |  |  |
| CC[C@H](C(=O)N1CCCC[C@H]1C(=O)O[C@H](CCc1ccc(OC)c(OC)c1)c1cccc(OCC(=O)NCCNC(=O)COc2cccc([C@@H](CCc3ccc(OC)c(OC)c3)OC(=O)[C@@H]3CCCCN3C(=O)[C@@H](CC)c3cc(OC)c(OC)c(OC)c3)c2)c1)c1cc(OC)c(OC)c(OC)c1 [rimiducid] |  |  | can activate | maximal IL-2 secretion | caused cell death | not active | > 100 nM | > 50 nM | subnanomolar | rimiducid-dependent | approximately 50% |
